Reference: patent US20160319367A1, “MEANS AND METHODS FOR TYPING A BREAST CANCER PATIENT AND ASSIGNING THERAPY BASED ON THE TYPING” (STICHTING HET NEDERLANDS KANKER INSTITUUT-ANTONI VAN …, priority 2013, published 2016)

Tests used:
ERα = ERα ChIP-seq (ERα/chromatin interactions) in ZR-75-1 cells; type: cell-based, human; conditions: control ZR-75-1 cells (pRS-GFP), hormone depleted 72 hours, ligand for 48 hours
Method: Chromatin Immunoprecipitations (ChIP) were performed as described before (Schmidt et al., 2009. Methods 48: 240-8). For each ChIP, 10 μg of antibody was used, and 100 μl of Protein A magnetic beads (Invitrogen). The antibody used was raised against ERα (SC-543; Santa Cruz).
ChIP DNA was amplified as described (Schmidt et al., 2009. Methods 48: 240-8). Sequences were generated by the Illumina Hiseq 2000 genome analyser (using 50 bp reads), and aligned to the Human Reference Genome (assembly hg19, February 2009). Enriched regions of the genome were identified by comparing the ChIP samples to mixed input using the MACS peak caller (Zhang et al., 2008. Genome Biol 9: R137) version 1.3.7.1.
ChIP-seq data snapshots were generated using the Integrative Genome Viewer IGV 2.1 (www.broadinstitute.org/igv/). Motif analyses were performed through the Cistrome (cistrome.org), applying the SeqPos motif tool (He et al., 2010. Nat Genet 42: 343-7). The genomic distributions of binding sites were analysed using the cis-regulatory element annotation system (CEAS) (Ji et al., 2006. Nucleic Acids Res 34: W551-4). The genes closest to the binding site on both strands were analysed. If the binding region is within a gene, CEAS software indicates whether it is in a 5′UTR, a 3′UTR, a coding exon, or an intron. Promoter is defined as 3 kb upstream from RefSeq 5′ start. […]

ZR-75-1 cells [1] = test: RNA-seq global gene expression analysis in ZR-75-1 cells; type: cell-based, human; conditions: hormone depletion for 72 hours, treated for 48 hours, RNAseq, p<0.05
Method: Transcriptome sequencing analysis of the cell line ZR-75-1 with stable USP9X knockdown or a control vector were performed using RNA-Seq. The reads (14-30 million 50 bp single-end) were mapped to the human reference genome (hg19) using TopHat (Trapnell et al., 2009. Bioinformatics 25: 1105-1127), which allows to span exon-exon splice junctions. TopHat was supplied with a known set of gene models (Ensembl version 64). The open-source tool HTSeq-Count was used to obtain gene expressions. This tool generates a list of the total number of uniquely mapped sequencing reads for each gene that is present in the provided Gene Transfer Format (GTF) file. In order to identify differentially expressed genes, the random sampling model in the R package […] al., 2010. Bioinformatics 26: 136-8.28) was used. […] The input of this method is the absolute number of reads for a gene, which is the output of HTSeq-count. Genes with no expression across both samples in the comparison were discarded from the dataset. The expression levels of the remaining genes were added with 1 in order to avoid negative values after log 2 transformation during the normalization step within this method. […] We therefore asked whether USP9X knockdown in tamoxifen-treated cells would also give rise to a typical estradiol-responsive gene set. […]

ZR-75-1 cells [2] = test: Colony formation / proliferation assay in ZR-75-1 cells; type: cell-based, human; conditions: 1 μM 4OH-tamoxifen or 10^-7 M fulvestrant
Method: The human breast cancer cell lines ZR-75-1 (ATCC CRL-1500), MDA-MB-231 (ATCC HTB-26) and T47D (ATCC HTB133) were cultured in DMEM supplemented with 10% FCS, 2 mM glutamine, 100 μg/ml penicillin, 100 μg/ml streptomycin, and 1 nM estradiol at 37° C. in 5% CO2. […] Phoenix cells (ATCC CRL-3214) were cultured at 37° C. in 5% CO2 in DMEM with 10% FCS, 2 mM glutamine, 100 μg/ml penicillin, and 100 μg/ml streptomycin.
Cells were infected with retroviral supernatant and selected with puromycin (2.0 μg/ml). […] When colonies appeared, cells were fixed in MeOH/HAc (3:1) and subsequently stained with 50% MeOH/10% HAc/0.1% Coomassie.

[3] = cited from earlier work
[4] = early breast cancer, 5 years of adjuvant treatment

With `CC/C(=C(\c1ccc(O)cc1)c1ccc(OCCN(C)C)cc1)c1ccccc1` [4OH-tamoxifen] the ERα/chromatin interactions (ERα) was “far less pronounced” and the “number of genes with altered expression as compared to vehicle” value (ZR-75-1 cells [1]) was 1906 genes.

For `C[C@]12CC[C@@H]3c4ccc(O)cc4CC[C@H]3[C@@H]1CC[C@@H]2O` [estradiol], the “number of genes with altered expression as compared to vehicle” value (ZR-75-1 cells [1]) was 8794 genes.

With `C[C@]12CC[C@@H]3c4ccc(O)cc4C[C@@H](CCCCCCCCC[S+]([O-])CCCC(F)(F)C(F)(F)F)[C@H]3[C@@H]1CC[C@@H]2O` (stereo partly drawn) [fulvestrant, (7α,17β)-7-{9-[(4,4,5,5,5-pentafluoropentyl)sulfinyl]nonyl}estra-1,3,5(10)-triene-3,17-diol] the cell proliferation (ZR-75-1 cells [2]) was “proliferation arrest”.

For `CC/C(=C(\c1ccccc1)c1ccc(OCCN(C)C)cc1)c1ccccc1.O=C(O)CC(O)(CC(=O)O)C(=O)O` [tamoxifen, (Z)2-[4-(1,2-diphenyl-1-butenyl)phenoxy]-N, N-dimethylethanamine 2-hydroxy-1,2,3-propanetricarboxylate (1:1)], the “rate of disease recurrence” value [3, 4] is given as “almost halves”, the “reduction of annual breast cancer death rate” value [3, 4] is given as “one-third” and the “women who still develop recurrent disease despite adjuvant treatment” value ([3]; in the next 15 years) is given as “one-third”.
